Laboratory results from patent publication US10889555B2, “Sulfonamide compound or salt thereof” (Taiho Pharmaceutical Co., Ltd., priority 2016, dated 2021).
Where two headings read alike, the source gives them in different places.

Columns and labels:
HCC 1806 cells = test: Cell proliferation inhibitory effect on human breast cancer cell line (crystal violet, 72 hours); format: cell-based; conditions: read-out: Cell growth suppression IC50
In short: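 Cells were seeded at 2,000/well in RPMI-1640 with 10% FBS and grown 1 day, then exposed to compound for 72 h at 37° C, 5% CO2. After glutaraldehyde fixation and 0.05% crystal violet staining, extracted dye was read at 540 nm. IC50 (μM) came from growth inhibition relative to untreated and cell-free wells.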

[1] = target: Human RNR (human M1 subunit and human M2 subunit) (Homo sapiens (Human), UniProt P23921); test: Human RNR inhibition effect (formation of dCDP from CDP, HPLC); format: biochemical
Sequence of Human RNR (human M1 subunit and human M2 subunit) (P23921 whole entry): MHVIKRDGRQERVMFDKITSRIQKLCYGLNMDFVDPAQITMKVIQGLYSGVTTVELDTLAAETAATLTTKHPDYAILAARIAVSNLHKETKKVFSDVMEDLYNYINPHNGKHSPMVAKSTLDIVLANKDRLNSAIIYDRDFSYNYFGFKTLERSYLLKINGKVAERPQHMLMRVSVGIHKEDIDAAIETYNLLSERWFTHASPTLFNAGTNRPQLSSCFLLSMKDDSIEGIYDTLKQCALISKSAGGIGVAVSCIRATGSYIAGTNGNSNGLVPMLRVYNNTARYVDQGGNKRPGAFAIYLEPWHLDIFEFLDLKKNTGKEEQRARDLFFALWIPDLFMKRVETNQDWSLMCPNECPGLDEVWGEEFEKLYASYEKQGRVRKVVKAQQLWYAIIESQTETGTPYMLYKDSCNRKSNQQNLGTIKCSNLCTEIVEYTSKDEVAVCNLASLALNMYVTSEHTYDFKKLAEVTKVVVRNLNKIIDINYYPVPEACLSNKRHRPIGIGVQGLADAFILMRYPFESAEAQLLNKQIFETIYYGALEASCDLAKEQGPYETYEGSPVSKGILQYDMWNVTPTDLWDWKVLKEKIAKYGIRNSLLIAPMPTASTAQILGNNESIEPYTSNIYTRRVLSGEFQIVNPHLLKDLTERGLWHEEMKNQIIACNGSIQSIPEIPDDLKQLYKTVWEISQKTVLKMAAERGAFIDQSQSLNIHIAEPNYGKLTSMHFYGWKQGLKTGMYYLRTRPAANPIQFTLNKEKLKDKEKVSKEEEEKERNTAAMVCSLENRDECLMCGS
Procedure: The inhibitory activity against the ribonucleotide reduction reaction (hereinafter referred to as RNR reaction) of the test compound was determined by measuring the formation of deoxycytidine diphosphate (hereinafter referred to as dCDP) from cytidine diphosphate (hereinafter referred to as CDP) by the following method.
Human M1 subunit and human M2 subunit (mutant lacking amino terminal 59 amino acids), which are fused a histidine tag at the amino terminus, are overexpressed in Escherichia coli and are solubilized after collection, and histidine tagged human M1 and M2 proteins were purified on a nickel chelate column.
First, test compounds were serially diluted with DMSO. Next, human M1 protein and human M2 protein were added to an aqueous albumin solution derived from 0.02% fetal bovine serum, a DMSO solution of the compound of the present invention or the control DMSO solution (final concentration of DMSO was 1%) was added, and the mixture was allowed to stand for 20 minutes. Thereafter, the reaction buffer [50 mM HEPES buffer (pH 7.2) at the final concentration, 4 mM magnesium acetate at the final concentration, 100 mM potassium chloride at the final concentration, 6 mM dithiothreitol at the final concentration, 2 mM adenosine triphosphate at the final concentration, 0.24 mM nicotinamide adenine dinucleotide phosphate at final concentration] and 10 μM CDP at the final concentration were added and incubated at 37° C. for 30 minutes to perform RNR reaction. Immediately after the reaction, the reaction was stopped by heating at 100° C. for 15 minutes, followed by centrifugation at 10,000 rpm for 10 minutes. After the centrifugation, a portion (5 μL) of the resulting supernatant was analyzed with a high performance liquid chromatography (Shimadzu Corporation, Prominence) using Shim-pack XR-ODS (manufactured by Shimadzu GLC Co., 3.0×100 mm).

[2] = tested on: various cancer cell lines as described in Table 21; test: Cell proliferation inhibitory effect on human cancer-derived cancer cell lines (method of Test Example 2); format: cell-based
Procedure: Human derived breast cancer cell line HCC 1806 cells were daily passaged at a cell density not exceeding 80% in ATCC recommended Roswell Park Memorial Institute medium (RPMI-1640) containing 10% fetal bovine serum (FBS). In order to start the test of cell proliferation inhibitory activity, HCC 1806 cells were suspended in the above medium, after seeing at 180 μL in each well of a 96-well flat bottom plate so that the number of cells per well was 2,000, the cells were cultured at 37° C. for 1 day in an incubator containing 5% carbon dioxide gas. On the next day, the test compound was dissolved in DMSO, and 20 μL of a drug additive solution diluted serially with distilled water to 10 times of the final concentration was added to each well of the culture plate of the cells, and the cells were cultured at 37° C. for 72 hours in an incubator containing 5% carbon dioxide gas. After culturing for 72 hours, 20 μL of glutaraldehyde was added to each well and allowed to stand for 30 minutes, then the plate was washed 10 times with water and was dried. 100 μL of a stain solution (0.05% crystal violet in a 20% methanol solution) was added to each well and allowed to stand for 30 minutes, then the plate was washed 10 times with water and was dried. 100 μL of an extract solution (0.1 N NaH2PO4: 100% ethanol=1:1) was added to each well and mixed, and the mixture was measured at a wavelength of 540 nm using a plate reader (MTP-450 manufactured by Corona Electric Co., Ltd.). The growth inhibition rate was calculated from the following formula, and the concentration (IC50 (μM)) of a test compound inhibiting 50% was determined. Growth inhibition rate (%)={(C−B)−(T−B)}/(C−B)×100
According to the method of Test Example 2, the cell proliferation inhibitory effect on various cancer cell lines as described in Table 21 was evaluated.

[3] = human M1 and M2 subunits, formation of dCDP from CDP, read-out: RNR Enzyme inhibitory activity IC50
[4] = A673, Ewing's sarcoma, 2000 cell/well, read-out: cell proliferation inhibitory effect, A673
[5] = A2780, Ovarian Cancer, 2000 cell/well, read-out: cell proliferation inhibitory effect, A2780
[6] = ACHN, Kidney Cancer, 2000 cell/well, read-out: cell proliferation inhibitory effect, ACHN
[7] = CFPAC-1, Pancreatic Cancer, 2000 cell/well, read-out: cell proliferation inhibitory effect, CFPAC-1
[8] = DU-145, DU145, Prostate Cancer, 5000 cell/well, read-out: cell proliferation inhibitory effect, DU145
[9] = GB-1, Glioblastoma, 3000 cell/well, read-out: cell proliferation inhibitory effect, GB-1
[10] = HCT-116, HCT116, Colorectal Cancer, 1000 cell/well, read-out: cell proliferation inhibitory effect, HCT116
[11] = HLE, Liver Cancer, 3000 cell/well, read-out: cell proliferation inhibitory effect, HLE
[12] = MSTO-211H, Mesothelioma, 6000 cell/well, read-out: cell proliferation inhibitory effect, MSTO-211H
[13] = NCI-H460, Lung Cancer, 1000 cell/well, read-out: cell proliferation inhibitory effect, NCI-H460
[14] = NCI-H2170, Lung Cancer, 5000 cell/well, read-out: cell proliferation inhibitory effect, NCI-H2170
[15] = NCI-H2228, Lung Cancer, 5000 cell/well, read-out: cell proliferation inhibitory effect, NCI-H2228
[16] = NUGC-3, Stomach Cancer, 2000 cell/well, read-out: cell proliferation inhibitory effect, NUGC-3
[17] = RPMI7932, Melanoma, 4000 cell/well, read-out: cell proliferation inhibitory effect, RPMI7932

SMILES	IC50 (HCC 1806 cells; Homo sapiens, HCC1806, 72 h) [µM]	IC50 [1, 3] [µM]	IC50 (HCC 1806 cells) [µM]	IC50 [2, 4] [µM]	IC50 [2, 5] [µM]	IC50 [2, 6] [µM]	IC50 [2, 7] [µM]	IC50 [2, 8] [µM]	IC50 [2, 9] [µM]	IC50 [2, 10] [µM]	IC50 [2, 11] [µM]	IC50 [2, 12] [µM]	IC50 [2, 13] [µM]	IC50 [2, 14] [µM]	IC50 [2, 15] [µM]	IC50 [2, 16] [µM]	IC50 [2, 17] [µM]	IC50 ([1]; human M1 and M2 proteins, 10 μM CDP, 37° C. for 30 minutes, read-out: IC50 (concentration inhibiting the RNR reaction by 50%)) [µM]
Cc1ccc(F)c([C@@H](C)[C@H](NS(=O)(=O)c2ccc(C(F)(F)F)c3c2OCCC3(C)O)c2n[nH]c(=O)o2)c1C (single isomer, unassigned) [Example 225A]	0.6	0.12																
COc1cc(Cl)ccc1S(=O)(=O)N[C@H](c1n[nH]c(=O)o1)[C@H](C)c1c(F)ccc(-c2ccn(C)n2)c1C [Example 305, 4-chloro-N-((1S,2R)-2-(6-fluoro-2-methyl-3-(1-methyl-1H-pyrazol-3-yl)phenyl)-1-(5-oxo-4,5-dihydro-1,3,4-oxadiazol-2-yl)propyl)-2-methoxybenzenesulfonamide]		0.24																
Cc1c(Cl)ccc(F)c1[C@@H](C)[C@H](NS(=O)(=O)c1ccc(Cl)c2c1OCCC2(C)O)c1n[nH]c(=O)o1 (single isomer, unassigned) [Example 209A]			0.06	0.32	0.3	0.22	0.33	0.31	0.64	0.28	0.26	0.32	0.25	0.57	0.73	0.4	0.72	
Cc1ccc(S(=O)(=O)NC(Cc2ccccc2)c2nnc(S)o2)cc1 (stereo not shown) [Comparative Example 1, reference compound]																		43
Cc1ccc(F)c([C@@H](C)[C@H](NS(=O)(=O)c2ccc(Br)cc2C(N)=O)c2n[nH]c(=O)o2)c1C [Example 1, 5-bromo-2-(N-((1 S,2R)-2-(6-fluoro-2,3-dimethylphenyl)-1-(5-oxo-4,5-dihydro-1,3,4-oxadiazol-2-yl)propyl)sulfamoyl)benzamide]	0.16			0.92	0.63	0.68	0.54	0.73	1.56	0.75	0.56	0.65	0.57	1.41	1.35	1.12	1.74	
[2H]C([2H])([2H])C1(O)CCOc2c(S(=O)(=O)N[C@H](c3n[nH]c(=O)o3)[C@H](C)c3c(F)ccc(C)c3C)ccc(Cl)c21 (single isomer, unassigned) [Example 200A]			0.05	0.18	0.13	0.13	0.17	0.17	0.37	0.22	0.14	0.17	0.13	0.49	0.5	0.27	0.43	
Cc1ccc(F)c([C@@H](C)[C@H](NS(=O)(=O)c2ccc(Cl)cc2C(N)=O)c2n[nH]c(=O)o2)c1C [Example 5]	0.2			1.09	0.83	0.75	0.94	1.04	1.57	0.91	0.79	0.7	0.73	1.89	1.27	1.22	2.67	
